≈ marks a conversion by molar mass, not a printed value. Bridge positions count the residues as written; N and C are the ends. Square brackets hold non-standard residues; d marks the D form. Peptide text beside a SMILES is read from it. * marks the point of attachment. Heptanoyl(6-Me) = CC(C)CCCCC(=O)*; dOrn = NCCC[C@@H](N)C(=O)O; dDab = NCC[C@@H](N)C(=O)O; Orn = NCCC[C@H](N)C(=O)O; Dab = NCC[C@H](N)C(=O)O; Dap = NC[C@H](N)C(=O)O
Columns and labels:
Escherichia coli [1] = assay: Antibacterial activity against Escherichia coli ATCC BAA-2523 assessed as inhibition of bacterial growth incubated for 16 to 20 hrs by CLSI protocol based broth microdilution method; format: functional; details: time 16-20 hrs
Escherichia coli [2] = assay: Antibacterial activity against carbapenem-resistant Escherichia coli ATCC BAA-2340 assessed as inhibition of bacterial growth incubated for 16 to 20 hrs by CLSI protocol based broth microdilution method; format: functional; details: time 16-20 hrs
Klebsiella pneumoniae [3] = assay: Antibacterial activity against carbapenem-resistant Klebsiella pneumoniae clinical isolate KPN+19-15 assessed as inhibition of bacterial growth incubated for 16 to 20 hrs by CLSI protocol based broth microdilution method; format: functional; details: time 16-20 hrs
Klebsiella pneumoniae [4] = assay: Antibacterial activity against carbapenem-resistant Klebsiella pneumoniae ATCC BAA-1705 assessed as inhibition of bacterial growth incubated for 16 to 20 hrs by CLSI protocol based broth microdilution method; format: functional; details: time 16-20 hrs
Pseudomonas aeruginosa [5] = assay: Antibacterial activity against carbapenem-resistant Pseudomonas aeruginosa clinical isolate 19-3 assessed as inhibition of bacterial growth incubated for 16 to 20 hrs by CLSI protocol based broth microdilution method; format: functional; details: time 16-20 hrs
Pseudomonas aeruginosa [6] = assay: Antibacterial activity against Pseudomonas aeruginosa ATCC 27853 assessed as inhibition of bacterial growth incubated for 16 to 20 hrs by CLSI protocol based broth microdilution method; format: functional; details: time 16-20 hrs
Acinetobacter baumannii [7] = assay: Antibacterial activity against carbapenem-sensitive Acinetobacter baumannii clinical isolate 19-1 assessed as inhibition of bacterial growth incubated for 16 to 20 hrs by CLSI protocol based broth microdilution method; format: functional; details: time 16-20 hrs
Acinetobacter baumannii [8] = assay: Antibacterial activity against Acinetobacter baumannii NCTC 13304 (OXA-27) assessed as inhibition of bacterial growth incubated for 16 to 20 hrs by CLSI protocol based broth microdilution method; format: functional; details: time 16-20 hrs
[9] = Renal cytotoxicity against HK-2 cells incubated for 72 hrs by CCK8 assay; format: toxicity, cell-based; details: human

Row | Compound | MIC (Escherichia coli [1]) [µg/mL] | MIC (Escherichia coli [2]) [µg/mL] | MIC (Klebsiella pneumoniae [3]) [µg/mL] | MIC (Klebsiella pneumoniae [4]) [µg/mL] | MIC (Pseudomonas aeruginosa [5]) [µg/mL] | MIC (Pseudomonas aeruginosa [6]) [µg/mL] | MIC (Acinetobacter baumannii [7]) [µg/mL] | MIC (Acinetobacter baumannii [8]) [µg/mL] | IC50 at 72 h [9] [µg/mL]
1 | CC(C)CCCCC(=O)N[C@@H](CCN)C(=O)N[C@H](C(=O)N[C@H](CCN)C(=O)N[C@H]1CCNC(=O)[C@H]([C@@H](C)O)NC(=O)[C@H](CCN)NC(=O)[C@H](CCN)NC(=O)[C@H]([C@@H](C)O)NC(=O)[C@@H](Cc2ccccc2)NC(=O)[C@H](CCN)NC1=O)[C@@H](C)O ({Heptanoyl(6-Me)}-[Dab]T[dDab][Dab][Dab][dF]T[Dab][Dab]T; lactam 4-C) | ≤ 0.03 | ≤ 0.03 | ≤ 0.03 | 0.125 (≈ 0.106 µM) | 0.5 (≈ 0.425 µM) | 0.5 (≈ 0.425 µM) | 0.06 (≈ 0.051 µM) | ≤ 0.03 | > 500
2 | CC(C)CCCCC(=O)N[C@@H](CCN)C(=O)N[C@H](C(=O)N[C@H](CCCN)C(=O)N[C@H]1CCNC(=O)[C@H]([C@@H](C)O)NC(=O)[C@H](CCN)NC(=O)[C@H](CCN)NC(=O)[C@H]([C@@H](C)O)NC(=O)[C@@H](Cc2ccccc2)NC(=O)[C@H](CCN)NC1=O)[C@@H](C)O ({Heptanoyl(6-Me)}-[Dab]T[dOrn][Dab][Dab][dF]T[Dab][Dab]T; lactam 4-C) | ≤ 0.03 | ≤ 0.03 | 0.125 (≈ 0.105 µM) | 0.06 (≈ 0.0504 µM) | 1 (≈ 0.839 µM) | 0.25 (≈ 0.21 µM) | 0.125 (≈ 0.105 µM) | 0.06 (≈ 0.0504 µM) | > 500
3 | CC(C)CCCCC(=O)N[C@@H](CCN)C(=O)N[C@H](C(=O)N[C@H](CO)C(=O)N[C@H]1CCNC(=O)[C@H]([C@@H](C)O)NC(=O)[C@H](CN)NC(=O)[C@H](CCN)NC(=O)[C@H]([C@@H](C)O)NC(=O)[C@@H](Cc2ccccc2)NC(=O)[C@H](CCN)NC1=O)[C@@H](C)O ({Heptanoyl(6-Me)}-[Dab]T[dS][Dab][Dab][dF]T[Dab][Dap]T; lactam 4-C) | ≤ 0.03 | ≤ 0.03 | ≤ 0.03 | 0.06 (≈ 0.0522 µM) | 8 (≈ 6.95 µM) | 8 (≈ 6.95 µM) | 0.06 (≈ 0.0522 µM) | ≤ 0.03 | > 500
4 | CC(C)CCCCC(=O)N[C@@H](CCN)C(=O)N[C@H](C(=O)N[C@H](CO)C(=O)N[C@H]1CCNC(=O)[C@H]([C@@H](C)O)NC(=O)[C@H](CCCN)NC(=O)[C@H](CCN)NC(=O)[C@H]([C@@H](C)O)NC(=O)[C@@H](Cc2ccccc2)NC(=O)[C@H](CCN)NC1=O)[C@@H](C)O ({Heptanoyl(6-Me)}-[Dab]T[dS][Dab][Dab][dF]T[Dab][Orn]T; lactam 4-C) | 0.25 (≈ 0.212 µM) | 0.25 (≈ 0.212 µM) | 0.5 (≈ 0.424 µM) | 1 (≈ 0.849 µM) | > 64 | > 64 | 8 (≈ 6.79 µM) | 8 (≈ 6.79 µM) | > 500
5 | CC(C)CCCCC(=O)N[C@@H](CCN)C(=O)N[C@H](C(=O)N[C@H](CO)C(=O)N[C@H]1CCNC(=O)[C@H]([C@@H](C)O)NC(=O)[C@H](CCN)NC(=O)[C@H](CCCN)NC(=O)[C@H]([C@@H](C)O)NC(=O)[C@@H](Cc2ccccc2)NC(=O)[C@H](CCN)NC1=O)[C@@H](C)O ({Heptanoyl(6-Me)}-[Dab]T[dS][Dab][Dab][dF]T[Orn][Dab]T; lactam 4-C) | 0.125 (≈ 0.106 µM) | 0.06 (≈ 0.0509 µM) | 0.125 (≈ 0.106 µM) | 0.25 (≈ 0.212 µM) | 8 (≈ 6.79 µM) | 4 (≈ 3.39 µM) | 0.125 (≈ 0.106 µM) | 0.125 (≈ 0.106 µM) | > 500
6 | CC(C)CCCCC(=O)N[C@@H](CCN)C(=O)N[C@H](C(=O)N[C@H](CO)C(=O)N[C@H]1CCNC(=O)[C@H]([C@@H](C)O)NC(=O)[C@H](CCN)NC(=O)[C@H](CCN)NC(=O)[C@H]([C@@H](C)O)NC(=O)[C@@H](Cc2ccccc2)NC(=O)[C@H](CN)NC1=O)[C@@H](C)O ({Heptanoyl(6-Me)}-[Dab]T[dS][Dab][Dap][dF]T[Dab][Dab]T; lactam 4-C) | 0.06 (≈ 0.0522 µM) | 0.06 (≈ 0.0522 µM) | 0.06 (≈ 0.0522 µM) | 0.25 (≈ 0.217 µM) | 64 (≈ 55.6 µM) | > 64 | 0.25 (≈ 0.217 µM) | 0.25 (≈ 0.217 µM) | > 500
7 | CC(C)CCCCC(=O)N[C@@H](CCN)C(=O)N[C@H](C(=O)N[C@H](CO)C(=O)N[C@H]1CCNC(=O)[C@H]([C@@H](C)O)NC(=O)[C@H](CCN)NC(=O)[C@H](CCN)NC(=O)[C@H]([C@@H](C)O)NC(=O)[C@@H](Cc2ccccc2)NC(=O)[C@H](CCCN)NC1=O)[C@@H](C)O ({Heptanoyl(6-Me)}-[Dab]T[dS][Dab][Orn][dF]T[Dab][Dab]T; lactam 4-C) | 8 (≈ 6.79 µM) | 4 (≈ 3.39 µM) | 64 (≈ 54.3 µM) | 8 (≈ 6.79 µM) | > 64 | > 64 | > 64 | 64 (≈ 54.3 µM) | > 500
8 | CC(C)CCCCC(=O)N[C@@H](CN)C(=O)N[C@H](C(=O)N[C@H](CO)C(=O)N[C@H]1CCNC(=O)[C@H]([C@@H](C)O)NC(=O)[C@H](CCN)NC(=O)[C@H](CCN)NC(=O)[C@H]([C@@H](C)O)NC(=O)[C@@H](Cc2ccccc2)NC(=O)[C@H](CCN)NC1=O)[C@@H](C)O ({Heptanoyl(6-Me)}-[Dap]T[dS][Dab][Dab][dF]T[Dab][Dab]T; lactam 4-C) | ≤ 0.03 | ≤ 0.03 | 0.5 (≈ 0.435 µM) | 0.25 (≈ 0.217 µM) | 4 (≈ 3.48 µM) | 64 (≈ 55.6 µM) | 0.25 (≈ 0.217 µM) | 0.25 (≈ 0.217 µM) | > 500
9 | CC(C)CCCCC(=O)N[C@@H](CCCN)C(=O)N[C@H](C(=O)N[C@H](CO)C(=O)N[C@H]1CCNC(=O)[C@H]([C@@H](C)O)NC(=O)[C@H](CCN)NC(=O)[C@H](CCN)NC(=O)[C@H]([C@@H](C)O)NC(=O)[C@@H](Cc2ccccc2)NC(=O)[C@H](CCN)NC1=O)[C@@H](C)O ({Heptanoyl(6-Me)}-[Orn]T[dS][Dab][Dab][dF]T[Dab][Dab]T; lactam 4-C) | 0.25 (≈ 0.212 µM) | 0.25 (≈ 0.212 µM) | 0.5 (≈ 0.424 µM) | 0.5 (≈ 0.424 µM) | 64 (≈ 54.3 µM) | > 64 | 4 (≈ 3.39 µM) | 4 (≈ 3.39 µM) | > 500
